Literature values, collected in patent US7141532B2, “Process for the preparation of a dry pesticidal composition containing a dicarboxylate component” (Monsanto Technology LLC, priority 2002, dated 2006).

- pK1 (first proton): about 1.25
- pK2 (second proton): about 4.29
SMILES: O=C(O)C(=O)O [Oxalic acid]
